Entries after “also recorded” stand apart in the source; their conditions may differ.

In data set [1] the test system is D-aminoacylase derived from Streptomyces thermonitrificans. Description: Effect of inhibitors against D-aminoacylase. The format is biochemical. To be noted: for Effect on enzyme activity (in words): SH reagents, 1 mM. On the procedure:
(§1) The measurement of the enzyme activity was proceeded according to the TNBS method (Tokuyama, S., Hatano, K., and Takahashi, T., Biosci.Biotech.Biochem. 58:24(1994)). That is, the sample containing the amino acid was added to 0.5 ml of solution (C) (0.1 M Na2B4O7) to give a total volume of 1.0 ml. […] of 0.11 M TNBS solution was added with stirring immediately. The absorbance at 420 nm was measured after 5 minutes.
(§2) Various metal salt and various enzyme inhibitors were added to a concentration of 1 mM to the enzyme reaction, and measurement of the enzyme reaction was performed. The enzyme reaction was conducted in 50 mM Tris/HCl (pH 7.5) buffer (total volume of 500 μl). For the metal salt added reaction, 1 mM of each metal salt or EDTA was added to the standard reaction composition solution without the enzyme and was preincubated at 30° C. for 5 minutes, then enzyme was added to react at 30° C. for 60 minutes. For the enzyme inhibitor added reaction, the standard reaction solution without the substrate was preincubated at 5 minutes, then after adding 1 mM of each inhibitor […] the substrate was added, and the enzyme reaction was performed at 30° C. for 100 minutes. The relative activity was calculated taking activity of enzyme actions without addition of inhibitors as 100%.

Data set [2] shares this test system. Description: Effect of metal salt for D-aminoacylase. It counts as biochemical. To be noted: for Effect on enzyme activity (in words): 1 mM metal ion or EDTA. On the procedure:
as §1, §2

The test system is the same in data set [3]. Description: Substrate specificity of D-aminoacylase. It counts as biochemical. Particulars: for Catalysis of the reaction with the substrate (in words): N-acetyl amino acid substrates; for Activity / Relative activity: substrate 20 mM; for Activity: 1 mM cobalt chloride, 50 mM Tris/HCl pH 7.5, 30° C., 60 minutes; for Relative activity: activity against N-acetyl-D-methionine taken as 100%. On the procedure:
The activity of the D-aminoacylase of the present invention can be tested by the following procedure. For example, an enzyme solution (100 μl) is mixed and incubated with 50 mM Tris-HCl (pH 7.5) buffer (total volume: 500 μl) containing 20 mM substrate (various N-acetyl-D-amino acids) at 30° C. for 60 minutes. By measuring the amounts of amino acid synthesized by this reaction, enzymatic activities for respective substrates can be compared with each other. Assay for amino acid is performed by the TNBS (trinitrobenzenesulfonic acid) method or the HPLC method.
as §1
D-methionine was measured colorimetrically using L-methionine as a standard, and the amount of enzyme-producing 1 μmol of D-methionine in 1 minute at 30° C. was determined 1 unit.
The substrate specificity of the enzyme of the present invention was compared taking the enzyme activity against N-acetyl-D-methionine as 100%. N-acetyl-D-valine, N-acetyl-D-phenylalanine, N-acetyl-D-leucine, N-acetyl-D-tryptophan, N-acetvl-D-alanine N-acetyl-L-methionine, N-acetyl-L-leucine, and N-acetyl-L-valine was used as the substrate for comparison. The enzyme activity was measured in a standard reaction solution (total volume of 500 μl containing 100 μl of enzyme solution, and 400 μl of 50 mM Tris/HCl (pH 7.5) containing 20 mM of each substrate and 1 mM cobalt chloride at 30° C. for 60 minutes. The substrate specificity for N-acetyls of D-methionine, D-leucine, D-valine, D-tryptophan, D-alanine and D-phenylalanine is depicted in Table 2.

For data set [4] the following is noted: in vivo; cited from earlier work.
Setting [5] is: 1 mM reagent, 50 mM Tris/HCl pH 7.5, 30° C., 100 minutes.
[6] abbreviates: 1 mM reagent, no addition = 100%.
Where [7] appears, read: 1 mM metal salt or EDTA, 50 mM Tris/HCl pH 7.5, 30° C., 60 minutes.
Setting [8] is: 1 mM metal salt or EDTA, no addition = 100%.

`O=S(=O)(F)Cc1ccccc1` [Phenylmethylsulfonyl fluoride]: in data set [1] (setting [5]), the Activity is recorded as 29.5 mU/ml. For the same molecule, the Relative activity in data set [1] (setting [6]) is 70%.

`NO` [Hydroxylammonium chloride]: the Relative activity in data set [1] is given as 102%. This molecule registered an Activity in data set [1] (setting [5]) of 46.5 mU/ml.

For the molecule `O=C(O)CI` [Monoiodoacetic acid], the Relative activity in data set [1] was determined as 84%. Besides, the Activity in data set [1] (pH 7.5) stood at 37.9 mU/ml.

For `[Cl][Sn][Cl]` [SnCl2], the Activity in data set [2] (setting [7]) came to 32.8 mU/ml. Moreover, the Relative activity in data set [2] (setting [8]) came to 102%.

In data set [1] (setting [5]), `c1ccc(-c2ccccn2)nc1` [2,2′-Bipyridyl] displayed an Activity of 21.9 mU/ml. For the same molecule, the Relative activity in data set [1] (setting [6]) is listed as 49%.

`[F-].[Na+]` [NaF] yielded an Activity in data set [1] (setting [5]) of 45.2 mU/ml. In data set [1] (setting [6]), the Relative activity came out at 99%.

Turning to `[I-].[K+]` [KI], the Activity in data set [1] (setting [5]) came to 11.3 mU/ml. Moreover, in data set [1] (setting [6]), the Relative activity was 24%.

As to `[Cl][Ni][Cl]` [NiCl2], in data set [2] (setting [7]), the Activity was 15.9 mU/ml. For the same molecule, the Relative activity in data set [2] (setting [8]) stood at 51%.

The molecule `O[C@@H](CS)[C@@H](O)CS` [DTT] showed an Activity in data set [1] (setting [5]) of 34.8 mU/ml. In data set [1] (setting [6]), the Relative activity was found to be 76%.

`[Cl][Cu][Cl]` [CuCl2]: in data set [2], the “Effect on enzyme activity (in words)” value was “markedly inhibited”. Moreover, the Activity in data set [2] (setting [7]) was 1.0 mU/ml. The Relative activity in data set [2] (setting [8]) is given as 3%.

Consider `O=C(O)c1cc[c]([Hg][Cl])cc1` [p-Chloromercuribenzoic acid], for which the Activity in data set [1] (setting [5]) was 2.1 mU/ml. For the same molecule, the Relative activity in data set [1] (setting [6]) was 4%. Moreover, the “Effect on enzyme activity (in words)” value in data set [1] is “inhibited”.

Take `CC(=O)N[C@H](Cc1ccccc1)C(=O)O` [N-Ac-D-Phe, N-acetyl-D-phenylalanine]: in data set [3], the “Catalysis of the reaction with the substrate (in words)” value (from here on “Catalysis of the reaction”) is listed as “efficiently catalyzes; also recorded: catalyze especially well”, the Activity is reported as 62.2 mU/ml and the Relative activity came to 144%.

For `CC(=O)N[C@H](Cc1c[nH]c2ccccc12)C(=O)O` [N-Ac-D-Trp, N-acetyl-D-tryptophan], in data set [3], the “Catalysis of the reaction” value is on record as “efficiently catalyzes; also recorded: catalyze especially well”, the Activity is 48.4 mU/ml and the Relative activity is 105%.

On to `[Cl-].[K+]` [KCl], for which the Activity in data set [2] (setting [7]) came to 30.9 mU/ml. Besides, the Relative activity in data set [2] (setting [8]) came out at 93%.

Regarding `O=C1CCC(N2C(=O)c3ccccc3C2=O)C(=O)N1` [L(S)-form, thalidomide], in data set [4], the Teratogenic activity result was “strong teratogenicity”.

With `[Cl-].[Cl-].[Zn+2]` [ZnCl2], the Activity in data set [2] (setting [7]) was 22.2 mU/ml. Also, in data set [2] (setting [8]), the Relative activity is given as 68%.

In the case of `CC(=O)N[C@H](CC(C)C)C(=O)O` [N-Ac-D-Leu, N-acetyl-D-leucine], in data set [3], the “Catalysis of the reaction” value is given as “catalyzes; also recorded: catalytic actions”, the Activity is given as 8.93 mU/ml and the Relative activity was 21%.

With `CSCC[C@H](NC(C)=O)C(=O)O` [N-Ac-L-Met, N-acetyl-L-methionine], in data set [3], the “Catalysis of the reaction” value is listed as “didn't catalyze; also recorded: substantially no catalytic activity”, the Activity was 0 mU/ml and the Relative activity came out at 0%.

Take `CC(=O)N[C@H](C)C(=O)O` [N-Ac-D-Ala, N-acetyl-D-alanine]: in data set [3], the “Catalysis of the reaction” value is listed as “catalyzes; also recorded: catalytic actions”, the Activity came out at 16.9 mU/ml and the Relative activity is on record as 40%.

With `[Cl-].[Na+]` [NaCl], the Relative activity in data set [2] was found to be 103%. Moreover, in data set [2] (pH 7.5), the Activity is 33.1 mU/ml.

For `CC(=O)N[C@H](C(=O)O)C(C)C` [N-Ac-L-Val, N-acetyl-L-valine], in data set [3], the “Catalysis of the reaction” value is given as “didn't catalyze; also recorded: substantially no catalytic activity”, the Activity is given as 0 mU/ml and the Relative activity was 0%.

Take `[Cl][Fe]([Cl])[Cl]` [FeCl3]: in data set [2] (setting [7]), the Activity is recorded as 22.0 mU/ml. Moreover, the Relative activity in data set [2] (setting [8]) was 68%.

On to `[Cl][Fe][Cl]` [FeCl2], for which the Activity in data set [2] (setting [7]) is listed as 20.4 mU/ml. In addition, the Relative activity in data set [2] (setting [8]) was determined as 63%.

For the molecule `CC(=O)N[C@@H](Cc1ccccc1)C(=O)O` [N-Ac-L-Phe, N-acetyl-L-phenylalanine], in data set [3], the “Catalysis of the reaction” value is on record as “didn't catalyze; also recorded: substantially no catalytic activity”, the Activity is reported as 0 mU/ml and the Relative activity worked out at 0%.

As for `CC(=O)N[C@@H](C(=O)O)C(C)C` [N-Ac-D-Val, N-acetyl-D-valine], in data set [3], the “Catalysis of the reaction” value was “catalyzes; also recorded: catalytic actions”, the Activity was determined as 14.7 mU/ml and the Relative activity was determined as 40%.

For the molecule `[Cl][Mn][Cl]` [MnCl2], the Activity in data set [2] (setting [7]) is given as 21.0 mU/ml. Besides, in data set [2] (setting [8]), the Relative activity amounted to 65%.

Take `[Ca+2].[Cl-].[Cl-]` [CaCl2]: the Activity in data set [2] (setting [7]) came out at 31.1 mU/ml. For the same molecule, in data set [2] (setting [8]), the Relative activity worked out at 97%.

With `[Ba+2].[Cl-].[Cl-]` [BaCl2], the Activity in data set [2] (setting [7]) amounted to 30.6 mU/ml. For the same molecule, the Relative activity in data set [2] (setting [8]) worked out at 95%.

As to `[Cl-].[Cl-].[Mg+2]` [MgCl2], in data set [2] (setting [7]), the Activity amounted to 35.2 mU/ml. The Relative activity in data set [2] (setting [8]) is reported as 109%.

Take `O=S(=O)([O-])[O-].O=S(=O)([O-])[O-].O=S(=O)([O-])[O-].[Al+3].[Al+3]` [Al2(SO4)2]: the Activity in data set [2] (setting [7]) is 25.2 mU/ml. Further, the Relative activity in data set [2] (setting [8]) is 90%.

As for `CCN1C(=O)C=CC1=O` [N-Ethylmaleimide], the Activity in data set [1] (setting [5]) is listed as 1.3 mU/ml. The Relative activity in data set [1] (setting [6]) is given as 3%. The “Effect on enzyme activity (in words)” value in data set [1] is “inhibited”.

Take `CSCC[C@@H](NC(C)=O)C(=O)O` [N-Ac-D-Met, N-acetyl-D-methionine]: in data set [3], the “Catalysis of the reaction” value is on record as “efficiently catalyzes; also recorded: catalyze especially well”, the Activity was found to be 40.6 mU/ml and the Relative activity is 100%.

In the case of `O=C1CCC(N2C(=O)c3ccccc3C2=O)C(=O)N1` [D(R)-form thalidomide, thalidomide], the Teratogenic activity result in data set [4] was “no teratogenic activity”.

As to `O=C(NNc1ccccc1)NNc1ccccc1` [1,5-Diphenylcarbonylhydrazide], the Activity in data set [1] (setting [5]) is 40.5 mU/ml. For the same molecule, the Relative activity in data set [1] (setting [6]) is listed as 89%.

As for `O=C(O)CN(CCN(CC(=O)O)CC(=O)O)CC(=O)O` [EDTA], the “Effect on enzyme activity (in words)” value in data set [2] was “inhibited”. Moreover, in data set [2] (setting [7]), the Activity is listed as 9.4 mU/ml. Moreover, the Relative activity in data set [2] (setting [8]) was found to be 29%.

`[Cl][Co][Cl]` [CoCl2, cobalt chloride]: the “Effect on enzyme activity (in words)” value in data set [2] was “increased”. In addition, the Activity in data set [2] (setting [7]) worked out at 54.4 mU/ml. In addition, the Relative activity in data set [2] (setting [8]) stood at 168%.
